Patent US7763625B2, “Agents for treating migraine” (Kyowa Hakko Kirin Co., Ltd., priority 2004, dated 2010)

Tested on: basilar (cerebral) arteries
Assay: Contractile effects on basilar arteries (suppression of adenosine-induced relaxation of isolated cerebral artery rings)
Design: species or system Dogs
Settings: isolated dog basilar artery rings relaxed with adenosine; test compound added cumulatively; in comparison with the Vehicle group
From the text: Dogs were anesthetized by intravenous injection of sodium pentobarbital, after which they were euthanized by exsanguination and subjected to craniotomy.
The basilar (cerebral) arteries were removed and cut into rings segments of about 2 mm in width. Each ring segment was fixed with a silk thread to a needle cut into about 2 mm in length. The needle was attached to a holder provided in an Easy-Magnus System (Model no. UC-2; IWASHIYA KISHIMOTO MEDICAL INSTRUMENTS); the ring segments were immersed in a nutritive solution and allowed to stabilize at a resting tension of 0.2 g (1.96 mN) for more than 60 minutes. Into the organ bath (2 mL) of the Easy-Magnus System, the cerebral artery was relaxed by application of 2 μL of 10 mmol/L adenosine aqueous solution. After that, the test compound was added cumulatively; 1 μL of 0.2 mmol/L dimethylsulfoxide solution, 1 μL of 0.4 mmol/L dimethylsulfoxide solution, and 0.7 μL of 2 mmol/L dimethylsulfoxide solution in order (Test compound-added group). Separately, in the same manner as in the Test compound-added group, dimethylsulfoxide alone was cumulatively added in place of the test compound (Vehicle group). The contraction of the cerebral artery was recorded on a recorder (Yokogawa) from an isometric force transducer (Nihon Kohden) connected to the holder, to which the ring was fixed, through a strain-pressure amplifier (Nihon Kohden). […]

CCn1c(=O)c2c(nc(/C=C/c3ccc(OC)c(OC)c3)n2C)n(CC)c1=O [Compound 2]
suppression of the adenosine-induced relaxation of the cerebral artery: dose-dependently and significantly suppressed
